Experiments:
[1] = target: farnesyl protein transferase (Homo sapiens, UniProt P49354+P49356); test: FPT IC50, inhibition of farnesyl protein transferase, in vitro enzyme assay (procedure of WO 95/10516); format: biochemical; conditions: one range stated for the whole group of listed compounds, no individual values
Experimental: (§1) FPT IC50 (inhibition of farnesyl protein transferase, in vitro enzyme assay) and COS Cell IC50 (Cell-Based Assay) were determined following the assay procedures described in WO 95/10516, published April 20, 1995. GGPT IC50 (inhibition of geranylgeranyl protein transferase, in vitro enzyme assay), Cell Mat Assay, and anti-tumor activity (in vivo anti-tumor studies) could be determined by the assay procedures described in WO 95/10516. The disclosure of WO 95/10516 is incorporated herein by reference thereto.

COS Cell = COS Cell IC50, cell-based assay (procedure of WO 95/10516)
Experimental: as §1

Sequence of farnesyl protein transferase (P49356 whole entry, one chain of several): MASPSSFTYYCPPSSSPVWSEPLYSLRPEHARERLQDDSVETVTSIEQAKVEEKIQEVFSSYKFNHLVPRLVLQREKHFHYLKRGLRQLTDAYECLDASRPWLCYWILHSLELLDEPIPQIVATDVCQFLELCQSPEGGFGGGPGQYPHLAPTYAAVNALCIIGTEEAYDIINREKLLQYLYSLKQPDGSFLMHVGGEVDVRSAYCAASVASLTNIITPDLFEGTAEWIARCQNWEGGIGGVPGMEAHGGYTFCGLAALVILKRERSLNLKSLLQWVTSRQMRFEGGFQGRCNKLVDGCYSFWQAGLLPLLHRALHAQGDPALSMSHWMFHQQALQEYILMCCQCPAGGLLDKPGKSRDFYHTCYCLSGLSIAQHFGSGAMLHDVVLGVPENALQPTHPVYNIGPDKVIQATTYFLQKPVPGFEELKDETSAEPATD

SMILES	IC50 [1] [nM]	IC50 (COS Cell) [nM]
O=C(C1CCC2(CC1)OCCO2)N1CCC([C@H]2c3ncc(Br)cc3CCc3cc(Cl)cc(Br)c32)CC1 [Compound 34.0]	≥ 1.9	
CON=C1CCC(C(=O)N2CCC([C@H]3c4ncc(Br)cc4CCc4cc(Cl)cc(Br)c43)CC2)CC1 (some centres unmarked) [Compound 35.0]	≥ 1.9	
CC(C)(C)OC(=O)N[C@H]1CC[C@@H](C(=O)N2CCC([C@H]3c4ncc(Br)cc4CCc4cc(Cl)cc(Br)c43)CC2)CC1 [Compound 36.0]	≥ 1.9	
N[C@H]1CC[C@@H](C(=O)N2CCC([C@H]3c4ncc(Br)cc4CCc4cc(Cl)cc(Br)c43)CC2)CC1 [Compound 37.0]	≥ 1.9	
NC(=O)N[C@H]1CC[C@@H](C(=O)N2CCC([C@H]3c4ncc(Br)cc4CCc4cc(Cl)cc(Br)c43)CC2)CC1 [Compound 38.0]	≥ 1.9	
CCOC(=O)C(=O)N[C@H]1CC[C@@H](C(=O)N2CCC([C@H]3c4ncc(Br)cc4CCc4cc(Cl)cc(Br)c43)CC2)CC1 [Compound 39.0]	≥ 1.9	
CS(=O)(=O)N[C@H]1CC[C@@H](C(=O)N2CCC([C@H]3c4ncc(Br)cc4CCc4cc(Cl)cc(Br)c43)CC2)CC1 [Compound 40.0]	≥ 1.9	
CC(C)(C)OC(=O)NC1CCCC(C(=O)N2CCC([C@H]3c4ncc(Br)cc4CCc4cc(Cl)cc(Br)c43)CC2)C1 (some centres unmarked) [Compound 43.0]	≥ 1.9	
NC1CCCC(C(=O)N2CCC([C@H]3c4ncc(Br)cc4CCc4cc(Cl)cc(Br)c43)CC2)C1 (some centres unmarked) [Compound 44.0]	≥ 1.9	
NC(=O)NC1CCCC(C(=O)N2CCC([C@H]3c4ncc(Br)cc4CCc4cc(Cl)cc(Br)c43)CC2)C1 (some centres unmarked) [Compound 45.0]	≥ 1.9	
CCOC(=O)C(=O)NC1CCCC(C(=O)N2CCC([C@H]3c4ncc(Br)cc4CCc4cc(Cl)cc(Br)c43)CC2)C1 (some centres unmarked) [Compound 46.0]	≥ 1.9	
NC(=O)C(=O)NC1CCCC(C(=O)N2CCC([C@H]3c4ncc(Br)cc4CCc4cc(Cl)cc(Br)c43)CC2)C1 (some centres unmarked) [Compound 49.1]	≥ 1.9	
O=C([C@H]1CC[C@H](O)CC1)N1CCC([C@H]2c3ncc(Br)cc3CCc3cc(Cl)cc(Br)c32)CC1 [Compound 68.0]	≥ 1.9	
CC(=O)O[C@H]1CC[C@@H](C(=O)N2CCC([C@H]3c4ncc(Br)cc4CCc4cc(Cl)cc(Br)c43)CC2)CC1 [Compound 69.0]		30
O=C([C@H]1CC[C@@H](O)CC1)N1CCC([C@H]2c3ncc(Br)cc3CCc3cc(Cl)cc(Br)c32)CC1 [Compound 70.0]	≥ 1.9	

Second part, led by results:

IC50 [1] [nM]	SMILES	IC50 (COS Cell) [nM]
≥ 1.9	COc1ccc2c(c1)CC(CC(=O)N1CCC([C@H]3c4ncc(Br)cc4CCc4cc(Cl)cc(Br)c43)CC1)C2=O (single isomer, unassigned) [Compound 17.0A]	
≥ 1.9	O=C1CCC(CC(=O)N2CCC([C@H]3c4ncc(Br)cc4CCc4cc(Cl)cc(Br)c43)CC2)CC1 [Compound 13.0]	
≥ 1.9	O=C1CCN(CC(=O)N2CCC([C@H]3c4ncc(Br)cc4CCc4cc(Cl)cc(Br)c43)CC2)CC1 [Compound 14.0]	
≥ 1.9	O=C1CCC(=CC(=O)N2CCC([C@H]3c4ncc(Br)cc4CCc4cc(Cl)cc(Br)c43)CC2)CC1 [Compound 16.0]	
≥ 1.9	O=C1CCCCC1CC(=O)N1CCC([C@H]2c3ncc(Br)cc3CCc3cc(Cl)cc(Br)c32)CC1 (some centres unmarked) [Compound 18.0]	
≥ 1.9	O=C1CCCCC1CCC(=O)N1CCC([C@H]2c3ncc(Br)cc3CCc3cc(Cl)cc(Br)c32)CC1 (some centres unmarked) [Compound 19.0]	
≥ 1.9	C[C@]1(CCC(=O)N2CCC([C@H]3c4ncc(Br)cc4CCc4cc(Cl)cc(Br)c43)CC2)CCCCC1=O [Compound 20.0]	
≥ 1.9	O=C(C=C1CCC2(CC1)OCCO2)N1CCC([C@H]2c3ncc(Br)cc3CCc3cc(Cl)cc(Br)c32)CC1 [Compound 21.0]	
≥ 1.9	O=C(CC1CCC2(CC1)OCCO2)N1CCC([C@H]2c3ncc(Br)cc3CCc3cc(Cl)cc(Br)c32)CC1 [Compound 22.0]	
≥ 1.9	O=C(CC1CCC(=NO)CC1)N1CCC([C@H]2c3ncc(Br)cc3CCc3cc(Cl)cc(Br)c32)CC1 (some centres unmarked) [Compound 23.0]	
≥ 1.9	O=C(CN1CCC2(CC1)OCCO2)N1CCC([C@H]2c3ncc(Br)cc3CCc3cc(Cl)cc(Br)c32)CC1 [Compound 24.0]	
≥ 1.9	CON=C1CCC(CC(=O)N2CCC([C@H]3c4ncc(Br)cc4CCc4cc(Cl)cc(Br)c43)CC2)CC1 (some centres unmarked) [Compound 25.0]	
≥ 1.9	O=C(CN1CCC(=NO)CC1)N1CCC([C@H]2c3ncc(Br)cc3CCc3cc(Cl)cc(Br)c32)CC1 [Compound 26.0]	
≥ 1.9	CON=C1CCN(CC(=O)N2CCC([C@H]3c4ncc(Br)cc4CCc4cc(Cl)cc(Br)c43)CC2)CC1 [Compound 27.0]	
≥ 1.9	O=C(CN1CCC2(CC1)SCCS2)N1CCC([C@H]2c3ncc(Br)cc3CCc3cc(Cl)cc(Br)c32)CC1 [Compound 28.0]	
≥ 1.9	NC(=O)NN=C1CCC(CC(=O)N2CCC([C@H]3c4ncc(Br)cc4CCc4cc(Cl)cc(Br)c43)CC2)CC1 (some centres unmarked) [Compound 29.0]	
≥ 1.9	CC(=O)NN=C1CCC(CC(=O)N2CCC([C@H]3c4ncc(Br)cc4CCc4cc(Cl)cc(Br)c43)CC2)CC1 (some centres unmarked) [Compound 30.0]	
≥ 1.9	O=C(O)CON=C1CCC(CC(=O)N2CCC([C@H]3c4ncc(Br)cc4CCc4cc(Cl)cc(Br)c43)CC2)CC1 (some centres unmarked) [Compound 31.0]	
≥ 1.9	CC(C)(C)[Si](C)(C)OCCON=C1CCC(CC(=O)N2CCC([C@H]3c4ncc(Br)cc4CCc4cc(Cl)cc(Br)c43)CC2)CC1 (some centres unmarked) [Compound 32.0]	
≥ 1.9	O=C1CCC(C(=O)N2CCC([C@H]3c4ncc(Br)cc4CCc4cc(Cl)cc(Br)c43)CC2)CC1 [Compound 33.0]	
